Test results as given in patent US5677296A, “Carbamic acid derivatives of substituted dibenzoxazepine compounds, pharmaceutical compositions and methods of use” (G.D. Searle & Co., priority 1995, dated 1997).

Columns and labels:
[1] = test system: phenylbenzoquinone (PBQ)-induced writhing in mice; test: Writhing Assay (PBQ-induced writhing in mice, analgesic activity); format: in vivo, mouse (Charles River male albino mice); conditions: i.g.; for Writhing assay: number of mice out of eight or ten in which test compound produced analgesia: 30 mpk, 30 min before PBQ i.p., fraction of mice
Text: The Writhing Assay is one of the most widely-used experimental procedures for measuring the analgesic activity of different narcotic and nonnarcotic analgesic agents, and involves the continuous, chemically-induced pain of visceral origin to an animal, such as a mouse or rat. [Gyires et al., Arch. int. Pharmacodyn, 267, 131-140 (1984); C. Vander Wende et al., Fed. Proc., 15, 494 (1956); Koster et al., Fed. Proc., 18, 412 (1959); and Witken et al., J. Pharmacol. exp. Ther., 133, 400-408 (1961).] Chemicals which may be used to induce this pain include phenylbenzoquinone (PBQ) and acetic acid. As a result of the chemical irritation to the animal, a characteristic stretching and writhing of the animal (dorsiflexion of the animal's back, extension of its hindlimbs and the strong contraction of its abdominal musculature) will generally occur. […] Drugs which reduce the number of writhes of the animal appear to restore the normal nociceptive threshold of the animal.
Charles River male albino mice, weighing 20 to 30 grams, were used in this assay.
Thirty minutes after intragastric administration to ten mice of 30 mg per kilogram of body weight of a compound of the present invention ("test compound"), […] per 10 g of body weight of a 0.025% w/v solution of PBQ was injected intraperitoneally into each mouse. Ten mice which were given saline in place of a test compound of the invention were used as a control group.
Five minutes later, each mouse was individually placed into a glass beaker for observation, and the number of writhes occurring during the following ten-minute period was counted.
A test compound was considered to have produced analgesia in a mouse if, in accordance with the conditions set forth above, and under the test criteria employed for this assay, after the administration of 30 mg per kilogram of body weight of a compound of the present invention to the mouse, the number of writhes elicited by a mouse injected with PBQ was equal to, or less than, one-half the median number of writhes recorded for the saline-treated control group of mice that day, as described by Taber in "Predictive Value of Analgesic Assays in Mice and Rats," Advances in Biochemical Psychopharmacology, 8, 191 (1974).
The results for the particular compounds of the present invention analyzed in this assay, and discussed in the examples identified below which correspond thereto, are presented in Table 1 hereinbelow as fractions under the heading "WRITHING ASSAY." The fractions indicate the number of mice out of eight or ten in which a test compound produced analgesia.
The standard initial screening dose of a test compound employed in this assay was 30 mpk […]. Generally, if this initial screening dose of the test compound produced analgesia in seven out of ten mice, then the effect of additional doses of the test compound on the writhing response was evaluated, and then the ED50 dose was generally calculated. (The slopes of the dose-response curves for all test compounds analyzed were compared as described by Tallarida and Murray, Manual of Pharmacologic Calculations, Page 11 (Springer Verlag, New York, 1981)).
All ED50 doses calculated are also presented in Table 1 hereinbelow under the heading "WRITHING ASSAY," but as whole numbers.

[2] = test system: prostaglandin E2-induced contractions of guinea pig ileum; test: Prostaglandin (PGE) Antagonism Assay (inhibition of prostaglandin E2-induced contractions of segments of guinea pig ileum); conditions: test compound 3 × 10^-6 M, 30 min incubation; dose ratio of PGE2 EC50 values; average where more than one determined
Protocol: (b) Prostaglandin (PGE) Antagonism Assay
In order to determine the effectiveness of several of the compounds of the present invention ("test compounds") as prostaglandin E2 antagonists,a prostaglandin antagonism assay was conducted, as described below, to determine the ability of these compounds to inhibit prostaglandin E2 -induced contractions of segments of guinea pig ileum.
Male albino guinea pigs weighing 200 to 500 grams were sacrificed by cervical dislocation. The ilea were then quickly removed from the guinea pigs and placed in a modified Tyrode solution, a solution which is known to those skilled in the art, containing one-half of the usual amount of magnesium ions.
Segments of ileum about 2 cm long were then cut and mounted in a 10 mL tissue bath containing the modified Tyrode solution. The solution was maintained at 37° C. and aerated with a gaseous mixture of 95% oxygen and 5% carbon dioxide. Data for a control prostaglandin E2 dose response curve plotting concentration of prostaglandin E2 versus the intensity of contractions, detected isotonically, was then obtained by experimentally adjusting the dose of the prostaglandin E2 being injected into the tissue bath, in a manner known by those of skill in the art.
Solutions or suspensions containing an initial concentration (3 micromolar) of a test compound in modified Tyrode solution ("test solutions/suspensions") were then separately substituted for the control bath solution. Each test solution/suspension was then kept in constant contact with the ileum tissue, except for brief periods to drain the bath in preparation for rinsing with fresh test solution/suspension. A second prostaglandin E2 dose response curve was then generated for prostaglandin E2 in the presence of a test compound.
A control dose response curve is produced in isolated segments of guinea pig ileum mounted in an automated apparatus with six concentrations of prostaglandin E2. A solution or suspension of test compound is substituted for the control bathing solution and is incubated for thirty minutes. An additional prostaglandin E2 dose response curve is then performed in the presence of the test compound. A dose ratio is calculated from the EC50 values obtained from duplicate replications on each concentration of the test compound.
A dose ratio of EC50 doses was calculated from the results of each test in a manner known by those of skill in the art, and described above.
The dose ratios reported in Table 1 represent an average of multiple dose ratios for those compounds for which more than one dose ratio was determined. The compounds of the present invention which were tested in this assay, and for which results are presented in Table 1, correspond to the particular examples specified in Table 1.
The pA2 value (a statistical constant which is a common measure of expressing the potency of a particular drug as a competitive antagonist), rather than the dose ratio, was calculated for the test compound shown and described in Example 6 by schild plot calculations, as described by H. O. Schild, "pA, A New Scale for the Measurement of Drug Antagonism," Br. J. Pharmacol, 2, 189 (1947), and is reported in Table 1.

| Compound | PGE2 antagonism in guinea pig ileum: Dose Ratio at 3 × 10^-6 M [2] | also measured |
| --- | --- | --- |
| O=C1OC(c2ccncc2)c2c(Cl)ccc3c2N1Cc1ccccc1O3 (stereo not drawn) [Compound 5, 4-chloro-3-(4-pyridyl)-1H,3H,12H-[3,1]-benzoxazino-[8,1-b,c][1,4]benzoxazepin-1-one] | 10.93 | Writhing assay: number of mice out of eight or ten in which test compound produced analgesia [1]: 10/10; ED50 ([1]; Mus musculus, PBQ i.p., read-out: Writhing assay: ED50 Dose (I.G.)): 3.7 mg/kg |
| Cn1c(-c2ccccc2)c2n(c1=O)-c1cc(Cl)ccc1Oc1ccccc1-2 [Compound 31] | 1.4 | – |
| O=C1OC(c2ccsc2)C2c3ccccc3Oc3ccc(Cl)cc3N12 (stereo not drawn) [Compound 12, 6-chloro-1,13b-dihydro-1-(3-thienyl)-3H-dibenz[b,f]oxazolo[3,4-d][1,4]-oxazepin-3-one] | 1.9 | – |
| O=C1C2c3ccccc3Oc3ccc(Cl)cc3N2C(=O)N1c1ccccc1 (stereo not drawn) [Compound 33, 6-Chloro-2-phenyl-2,13bH-dibenz[b,f]imidazo-[1,5-d][1,4]oxazepin-1,3-dione] | 4.3 | – |
| O=C1OC(c2cccnc2)C2c3ccccc3Oc3ccc(Cl)cc3N12 (mixture of isomers) [Compounds 9a and 9b (Mixture), 6-chloro-1,13b-dihydro-1-(3-pyridyl)-3H-dibenz[b,f]-oxazolo[3,4-d][1,4]oxazepin-3-one] | 1.5 | – |
| O=C1OC(c2ccncc2)c2c(Cl)ccc3c2N1Cc1ccccc1O3 (single isomer, unassigned; (-)) [Compound 5b, (-)-4-chloro-3-(4-pyridyl)-1H,3H,12H-[3,1]-benzoxazino[8,1-b,c][1, 4]benzoxazepin-1-one] | 80.5 | Writhing assay: number of mice out of eight or ten in which test compound produced analgesia ([1]; 30 mg/kg): 4/10 |
| O=C1O[C@@H](c2ccncc2)[C@H]2c3ccccc3Oc3ccc(Cl)cc3N12 [Compound 6b, (-)-trans-6-chloro-1,13b-dihydro-1-(4-pyridyl)-3H-dibenz[b,f]oxazolo[3,4-d][1,4]oxazepin-3-one] | 2.7 | Writhing assay: number of mice out of eight or ten in which test compound produced analgesia ([1]; 30 mg/kg): 6/10 |
| O=C1O[C@@H](c2ccncc2)[C@H]2c3ccccc3Oc3ccc(Cl)cc3N12 [Compound 6a, (+)-trans-6-chloro-1,13b-dihydro-1-(4-pyridyl)-3H-dibenz[b,f]oxazolo[3,4-d][1,4]oxazepin-3-one] | 23.4 | Writhing assay: number of mice out of eight or ten in which test compound produced analgesia ([1]; 30 mg/kg): 2/10 |
| O=C1C2c3ccccc3Oc3ccc(Cl)cc3N2C(=O)N1Cc1ccccc1 (stereo not drawn) [Compound 34, 6-Chloro-2-phenylmethyl-2H,13bH-dibenz[b,f]-imidazo-[1,5-d][1,4]oxazepin-1,3-dione] | 3.6 | – |
| O=C1OC(c2ccncc2)c2c(Cl)ccc3c2N1Cc1ccccc1O3 (single isomer, unassigned; (+)) [Compound 5a, (+)-4-chloro-3-(4-pyridyl)-1H,3H,12H-[3,1]benzoxazino-[8,1-b,c][1,4]benzoxazepin-1-one] | 5.2 | Writhing assay: number of mice out of eight or ten in which test compound produced analgesia ([1]; 30 mg/kg): 8/10 |
| O=C1N2C=Cc3ccccc3C2C2c3ccccc3Oc3ccc(Cl)cc3N12 (single isomer, unassigned) [Compound 28, 12-Chloro-15H-benz[b]isoquino[2',1':3,4]imidazo-1,5-d][benzoxazepin-15-one] | 3.5 | – |
| O=C1OC(c2ccccc2)c2c(Cl)ccc3c2N1Cc1ccccc1O3 (stereo not drawn) [Compound 2, 4-chloro-3-phenyl-1H,3H,12H-[3,1]-benzoxazino[8,1-b,c][1,4]benzoxazepin-1-one] | 29.2 | Writhing assay: number of mice out of eight or ten in which test compound produced analgesia [1]: 1/10 |
| O=C1OC(c2cccnc2)c2c(Cl)ccc3c2N1Cc1ccccc1O3 (stereo not drawn) [Compound 8, 4-chloro-3-(3-pyridyl)-1H,3H,12H-[3,1]-benzoxazino-[8,1-b,c][1,4]benzoxazepin-1-one] | – | Writhing assay: number of mice out of eight or ten in which test compound produced analgesia [1]: 5/10 |
| COC(=O)c1ccc([C@@H]2OC(=O)N3c4cc(Cl)ccc4Oc4ccccc4[C@@H]23)cc1 (relative stereo) [Compound 17, 6-chloro-1,13b-dihydro-1-(4-carboxymethylphenyl)-3H-dibenz[b,f]-oxazolo[3,4-d][1,4]-oxazepin-3-one] | 2.3 | – |
| O=C(O)Cc1ccc(C2OC(=O)N3c4cc(Cl)ccc4Oc4ccccc4C23)cc1 (stereo not drawn) [Compound 16, 6-chloro-1,13b-dihydro-1-(-4-carboxymethlyphenyl)-3H-dibenz[b,f]-oxazolo-[3,4-d][1,4]oxazepin-3-one] | 2.4 | – |
| O=C1OC2(CCCC2)C2c3ccccc3Oc3ccc(Cl)cc3N12 (stereo not drawn) [Compound 22, 6-chloro-1,13H-spiro[dibenz[b,f]-oxazolo3,4-d][1,4]oxazepin-1,1'-cyclopentane-3-one] | 2.5 | – |
| O=c1[nH]c(-c2ccccc2)c2n1-c1cc(Cl)ccc1Oc1ccccc1-2 [Compound 30, 6-Chloro-1-phenyl-2H-dibenz[b,f]imidazo[1,5-d]-[1,4]oxazepin-3-one] | 2.1 | – |
| O=C1OC2(CCC2)C2c3ccccc3Oc3ccc(Cl)cc3N12 (stereo not drawn) [Compound 21, 6-Chloro-1,13b-dihydro-3H-spiro[dibenz[b,f]oxazolo-[3,4-d][1,4]oxazepin-1,1'-cyclobutan]-3-one] | 0.9 | – |
| O=C1OC(c2ccco2)c2c(Cl)ccc3c2N1Cc1ccccc1O3 (stereo not drawn) [Compound 13, 4-chloro-3-(-2-furyl)-1H,3H,12H-[3,1]-benzoxazino-[8,1-b,c][1,4]benzoxazepin-1-one] | 4.4 | – |
| O=C1N2CCc3ccccc3C2C2c3ccccc3Oc3ccc(Cl)cc3N12 (stereo not drawn) [Compound 29, 12-Chloro-17,18-dihydro-15H-benz[b]isoquino[2',1';3,4]-imidazo[1,5-d][1,4]benzoxazepin-15-one] | 3.8 | – |
